Measured values: the NIST ThermoML archive (doi:10.1016/j.jct.2013.12.025)

Assay: xn = mol fraction of the nth substance listed
Conditions: 101 kPa, Liquid, Vibrating tube method

C=C[Si](C)(C)O[Si](C)(C)C=C [1,3-diethenyl-1,1,3,3-tetramethyldisiloxane] + Fc1ccccc1
mass density [kg/m3]
Conditions	283.15 K	288.15 K	293.15 K	298.15 K	303.15 K
x1 = 0.05	1013.6	1007.66	1001.73	995.86	989.74
x1 = 0.1	992.96	987.08	981.21	975.37	969.31
x1 = 0.15	974.59	968.74	962.94	957.17	951.1
x1 = 0.1993	958.3	952.51	946.77	941.03	934.98
x1 = 0.25	943.25	937.46	931.8	926.13	920.12
x1 = 0.2999	929.85	924.19	918.57	913	907.17
x1 = 0.35	917.58	911.93	906.37	900.84	895
x1 = 0.4	906.43	900.85	895.33	889.86	884.09
x1 = 0.45	896.19	890.66	885.22	879.75	874.12
x1 = 0.5	886.76	881.29	875.91	870.51	864.97
x1 = 0.5501	878.08	872.69	867.38	862.04	856.56
x1 = 0.6	870.07	864.73	859.45	854.19	848.77
x1 = 0.6501	862.6	857.33	852.11	846.89	841.53
x1 = 0.7	855.69	850.46	845.29	840.15	834.87
x1 = 0.7501	849.23	844.06	838.93	833.84	828.63
x1 = 0.8	843.23	838.1	833.02	827.99	822.84
x1 = 0.85	837.56	832.51	827.46	822.49	817.39
x1 = 0.8998	832.28	827.28	822.3	817.36	812.32
x1 = 0.95	827.28	822.33	817.38	812.49	807.52
x1 = 1	822.56	817.66	812.74	807.9	802.97

C=C[Si](C)(C)O[Si](C)(C)C=C [1,3-diethenyl-1,1,3,3-tetramethyldisiloxane] + CCc1ccccc1
mass density [kg/m3]
Conditions	283.15 K	288.15 K	293.15 K	298.15 K	303.15 K
x1 = 0.0501	871.7	867.28	862.84	858.47	854.01
x1 = 0.1001	867.93	863.46	858.98	854.58	850.08
x1 = 0.1499	864.35	859.85	855.33	850.89	846.35
x1 = 0.2001	860.93	856.41	851.85	847.37	842.8
x1 = 0.25	857.68	853.12	848.52	844.02	839.42
x1 = 0.3	854.59	850	845.38	840.85	836.21
x1 = 0.3499	851.64	847.02	842.37	837.8	833.13
x1 = 0.4	848.82	844.17	839.49	834.91	830.22
x1 = 0.4501	846.13	841.46	836.76	832.14	827.42
x1 = 0.5	843.56	838.86	834.13	829.5	824.76
x1 = 0.5503	841.09	836.39	831.62	826.96	822.2
x1 = 0.6	838.73	834.01	829.22	824.53	819.75
x1 = 0.6501	836.45	831.7	826.89	822.19	817.38
x1 = 0.6999	834.3	829.53	824.71	819.97	815.14
x1 = 0.7502	832.18	827.39	822.55	817.79	812.94
x1 = 0.8001	830.16	825.33	820.48	815.7	810.84
x1 = 0.85	828.22	823.42	818.54	813.71	808.83
x1 = 0.8999	826.37	821.53	816.65	811.81	806.91
x1 = 0.9498	824.65	819.79	814.89	810.02	805.11
x1 = 1	822.79	817.88	812.97	808.11	803.18
